# According to patent publication US20130302442A1, “METHODS OF USING (4S,4AS,5AR,12AS)-4-DIMETHYLAMINO-3,10,12,12A-TETRAHYDROXY-7-[(METHOXY(METHYL)AMINO)-METHYL]-1,11-DIOXO-1,4,4A,5,5A,6,11,12A-OCTAHYDRO-NAPHTHACENE-2-CARBOXYLIC ACID AMIDE” (priority 2012, published 2013):
# Where two headings read alike, the source gives them in different places.
# Assays:
# Bifidobacterium bifidum = experiment: In vitro MIC testing against anaerobic bacteria; assay type: cell-based; conditions: ATCC15696; Bifidobacterium bifidum 3965, ATCC 15696
# Bifidobacterium brevi = experiment: In vitro MIC testing against anaerobic bacteria; assay type: cell-based; conditions: ATCC15698; Bifidobacterium brevi 3967, ATCC 15698
# Bifidobacterium infantis = experiment: In vitro MIC testing against anaerobic bacteria; assay type: cell-based; conditions: ATCC15702; Bifidobacterium infantis 3966, ATCC 15702
# Bifidobacterium longum = experiment: In vitro MIC testing against anaerobic bacteria; assay type: cell-based; conditions: ATCC15707; Bifidobacterium longum 3968, ATCC 15707
# Clostridium perfringens = experiment: microbe, parasite or virus in culture; assay type: cell-based
# Clostridium difficile = experiment: In vitro MIC testing against anaerobic bacteria; assay type: cell-based
# Lactobacillus plantarum = experiment: In vitro MIC testing against anaerobic bacteria; assay type: cell-based; conditions: Lactiplantibacillus plantarum, ATCC39268; Lactobacillus plantarum 2791, ATCC 39268
# [1] = test system: Peptostreptococcus anaerobius; experiment: In vitro MIC testing against anaerobic bacteria; assay type: cell-based
# Propionibacterium acnes = experiment: In vitro MIC testing against anaerobic bacteria; assay type: cell-based; conditions: Cutibacterium acnes
# [2] = test system: Streptococcus intermedius; experiment: In vitro MIC testing against anaerobic bacteria; assay type: cell-based; conditions: ATCC27335; Streptococcus intermedius 1203, ATCC 27335
# Bacteroides ovatus = experiment: In vitro MIC testing against anaerobic bacteria; assay type: cell-based
# [3] = test system: Bacteroides thetaiotaomicron; experiment: In vitro MIC testing against anaerobic bacteria; assay type: cell-based
# Bacteroides vulgatus = experiment: In vitro MIC testing against anaerobic bacteria; assay type: cell-based
# Eikenella corrodens = experiment: In vitro MIC testing against anaerobic bacteria; assay type: cell-based; conditions: ATCC43278; Eikenella corrodens 1206, ATCC 43278; read-out: MIC
# [4] = test system: Fusobacterium necrophorum; experiment: In vitro MIC testing against anaerobic bacteria; assay type: cell-based; conditions: Fusobacterium necrophorum, ATCC25286
# Fusobacterium nucleatum = experiment: In vitro MIC testing against anaerobic bacteria; assay type: cell-based; conditions: Fusobacterium nucleatum, ATCC25586
# [5] = test system: Porphyromonas asaccharolytica; experiment: In vitro MIC testing against anaerobic bacteria; assay type: cell-based
# [6] = test system: Prevotella melaninogenica; experiment: In vitro MIC testing against anaerobic bacteria; assay type: cell-based
# Prevotella spp. = experiment: In vitro MIC testing against anaerobic bacteria; assay type: cell-based
# Veillonella parvula = experiment: In vitro MIC testing against anaerobic bacteria; assay type: cell-based; conditions: ATCC17745; Veillonella parvula 1272, ATCC 17745
# P. granulosum = experiment: In vitro MIC testing, antibacterial spectrum of activity; assay type: cell-based; conditions: P. granulosum [clinical isolates] (3 isolates)
# P. avidum = experiment: as above; assay type: cell-based; conditions: P. avidum [clinical isolates] (4 isolates)
# S. epidermidis = experiment: as above; assay type: cell-based, Staphylococcus epidermidis; conditions: for MIC50 / MIC90: Staphylococcus epidermidis; for MIC50: read-out: MIC50; for MIC90: read-out: MIC90
# S. pneumoniae = experiment: as above; assay type: cell-based, Streptococcus pneumoniae
# S. pyogenes = experiment: as above; assay type: cell-based
# S. agalactiae = experiment: as above; assay type: cell-based
# [7] = test system: Streptococcus spp. [Group C]; experiment: as above; assay type: cell-based; conditions: Streptococcus spp. [Group C] (30 isolates)
# E. faecium = experiment: as above; assay type: cell-based; conditions: for MIC / MIC50 / MIC90: Enterococcus faecium; for MIC50: read-out: MIC50; for MIC90: read-out: MIC90
# E. coli = experiment: as above; assay type: cell-based; conditions: Escherichia coli
# K. pneumoniae = experiment: as above; assay type: cell-based
# P. mirabilis = experiment: as above; assay type: cell-based; conditions: P. mirabilis (30 isolates)
# P. aeruginosa = experiment: as above; assay type: cell-based; conditions: Pseudomonas aeruginosa; P. aeruginosa (11 isolates)
# [8] = S. epidermidis [MRSE] (32 isolates)
# [9] = S. epidermidis [MSSE] (31 isolates)
# [10] = Klebsiella pneumoniae, K. pneumoniae (31 isolates)
structure (smiles),measurement,setting,value
"CON(C)Cc1ccc(O)c2c1C[C@H]1C[C@H]3[C@H](N(C)C)C(O)=C(C(N)=O)C(=O)[C@@]3(O)C(O)=C1C2=O [The Active, (4S,4aS,5aR,12aS)-4-dimethylamino-3,10,12,12a-tetrahydroxy-7-[(methoxy(methyl)amino)-methyl]-1,11-dioxo-1,4,4a,5,5a,6,11,12a-octahydro-naphthacene-2-carboxylic acid amide]",MIC,Bifidobacterium bifidum,1 µg/mL
same,MIC,Bifidobacterium brevi,1 µg/mL
same,MIC,Bifidobacterium infantis,0.5 µg/mL
same,MIC,Bifidobacterium longum,4 µg/mL
same,MIC,Clostridium perfringens,16 µg/mL
same,MIC,"Clostridium perfringens; read-out: MIC, high MIC values",> 16 µg/mL
same,MIC,Clostridium difficile; Clostridioides difficile,0.12 µg/mL
same,MIC,Clostridium difficile; Clostridium difficile 3584,0.12 µg/mL
same,MIC,Lactobacillus plantarum,2 µg/mL
same,MIC,[1]; Peptostreptococcus anaerobius 3526,2 µg/mL
same,MIC,[1]; Peptostreptococcus anaerobius 3531,4 µg/mL
same,MIC,Propionibacterium acnes,0.25 µg/mL
same,MIC,"Propionibacterium acnes; ATCC11829, Propionibacterium acnes 1286, ATCC 11829, read-out: MIC",1 µg/mL
same,MIC,"Propionibacterium acnes; P. acnes, summary of Table 1, read-out: minimum inhibitory concentration (MIC), relatively potent activity",≤ 4 µg/mL
same,MIC,[2],1 µg/mL
same,MIC,Bacteroides ovatus,0.25 µg/mL
same,MIC,"Bacteroides ovatus; Bacteroides ovatus 3503, read-out: MIC",8 µg/mL
same,MIC,[3]; Bacteroides thetaiotaomicron 3399,0.25 µg/mL
same,MIC,[3]; Bacteroides thetaiotaomicron 3496,16 µg/mL
same,MIC,Bacteroides vulgatus; Bacteroides vulgatus 3494,16 µg/mL
same,MIC,Bacteroides vulgatus; Phocaeicola vulgatus,16 µg/mL
same,MIC,Eikenella corrodens,1 µg/mL
same,MIC,[4],0.25 µg/mL
same,MIC,Fusobacterium nucleatum,0.25 µg/mL
same,MIC,[5],16 µg/mL
same,MIC,"[5]; Porphyromonas asaccharolytica 3557, read-out: MIC",8 µg/mL
same,MIC,"[6]; Prevotella melaninogenica 3437, read-out: MIC",32 µg/mL
same,MIC,"[6]; Prevotella melaninogenica 3443, read-out: MIC",4 µg/mL
same,MIC,Prevotella spp.; Prevotella spp. 3564,4 µg/mL
same,MIC,Prevotella spp.; Prevotella spp. 3568,2 µg/mL
same,MIC,Veillonella parvula,4 µg/mL
same,MIC Range,P. granulosum,1-1 μg/mL
same,MIC Range,P. avidum,1 to 4 µg/mL
same,MIC Range,S. epidermidis; [8],0.25 to 2 µg/mL
same,MIC Range,S. epidermidis; [9],0.12 to 2 µg/mL
same,MIC50,S. epidermidis; [8],0.5 µg/mL
same,MIC90,S. epidermidis; [8],2 µg/mL
same,MIC50,S. epidermidis; [9],0.25 µg/mL
same,MIC90,S. epidermidis; [9],2 µg/mL
same,MIC Range,S. pneumoniae; S. pneumoniae [PSSP] (32 isolates),≦0.03-32 μg/mL
same,MIC Range,S. pneumoniae; S. pneumoniae [tetR] (5 isolates),4 to 32 µg/mL
same,MIC Range,S. pneumoniae; S. pneumoniae [tetS] (5 isolates),≦0.06-0.125 μg/mL
same,MIC50,"S. pneumoniae; Streptococcus pneumoniae, S. pneumoniae [PSSP] (32 isolates), read-out: MIC50",0.12 µg/mL
same,MIC90,"S. pneumoniae; Streptococcus pneumoniae, S. pneumoniae [PSSP] (32 isolates), read-out: MIC90",0.25 µg/mL
same,MIC,"S. pneumoniae; Streptococcus pneumoniae, S. pneumoniae strain PBS # 511, tetM",4 µg/mL
same,MIC Range,S. pyogenes; S. pyogenes (32 isolates),0.12 to 16 µg/mL
same,MIC Range,S. pyogenes; S. pyogenes [tetR] (5 isolates),4 to 16 µg/mL
same,MIC Range,S. pyogenes; S. pyogenes [tetS] (5 isolates),≦0.06-0.25 μg/mL
same,MIC,"S. pyogenes; Streptococcus pyogenes, S. pyogenes strain PBS # 330, tetO",16 µg/mL
same,MIC,"S. pyogenes; Streptococcus pyogenes, S. pyogenes strain PBS # 792, tetM",4 µg/mL
same,MIC50,"S. pyogenes; Streptococcus pyogenes, S. pyogenes (32 isolates), read-out: MIC50",0.12 µg/mL
same,MIC90,"S. pyogenes; Streptococcus pyogenes, S. pyogenes (32 isolates), read-out: MIC90",8 µg/mL
same,MIC Range,S. agalactiae; S. agalactiae (31 isolates),0.12 to 32 µg/mL
same,MIC Range,S. agalactiae; S. agalactiae [tetR] (7 isolates),16 to 32 µg/mL
same,MIC Range,S. agalactiae; S. agalactiae [tetS] (3 isolates),0.125 to 0.25 µg/mL
same,MIC,"S. agalactiae; Streptococcus agalactiae, S. agalactiae strain PBS # 316, tetO",32 µg/mL
same,MIC,"S. agalactiae; Streptococcus agalactiae, S. agalactiae strain PBS # 897, tetM",16 µg/mL
same,MIC90,"S. agalactiae; Streptococcus agalactiae, S. agalactiae (31 isolates), read-out: MIC90",16 µg/mL
same,MIC Range,[7],0.12 to 16 µg/mL
same,MIC50,[7]; read-out: MIC50,0.25 µg/mL
same,MIC90,[7]; read-out: MIC90,16 µg/mL
same,MIC Range,E. faecium; E. faecium [VRE] (30 isolates),0.12 to 32 µg/mL
same,MIC Range,E. faecium; E. faecium [VSE] (32 isolates),0.12 to 32 µg/mL
same,MIC Range,E. faecium; E. faecium [tetR] (6 isolates),8 to 32 µg/mL
same,MIC,"E. faecium; E. faecium strain PBS # 965, tetM",8 µg/mL
same,MIC,"E. faecium; E. faecium strain PBS # 1323, tetK",8 µg/mL
same,MIC,"E. faecium; E. faecium strain PBS # 1324, tetO",16 µg/mL
same,MIC50,E. faecium; E. faecium [VRE] (30 isolates),2 µg/mL
same,MIC90,E. faecium; E. faecium [VRE] (30 isolates),32 µg/mL
same,MIC50,E. faecium; E. faecium [VSE] (32 isolates),0.5 µg/mL
same,MIC90,E. faecium; E. faecium [VSE] (32 isolates),32 µg/mL
same,MIC,E. coli,> 64 µg/mL
same,MIC90,E. coli,> 64 µg/mL
same,MIC Range,K. pneumoniae; K. pneumoniae [tetS] (7 isolates),16 to 64 µg/mL
same,MIC50,K. pneumoniae; [10],> 64 µg/mL
same,MIC90,K. pneumoniae; [10],> 64 µg/mL
same,MIC,"K. pneumoniae; Klebsiella pneumoniae, K. pneumoniae strain PBS # 266, tetD",> 64 µg/mL
same,MIC Range,P. mirabilis,>64 µg/mL
same,MIC50,P. mirabilis; Proteus mirabilis,> 64 µg/mL
same,MIC90,P. mirabilis; Proteus mirabilis,> 64 µg/mL
same,MIC50,P. aeruginosa,> 64 µg/mL
same,MIC90,P. aeruginosa,> 64 µg/mL
